Columns and labels:
[1] = populations of Southeast Asians consuming 70 mg/day of genistein; cited from earlier work
[2] = test system: mouse primary satellite cells; assay: Fusion of mouse primary satellite cells to myofibers in culture (fusion index); assay type: cell-based; conditions: genistein in culture medium, added on first, second or third day of culture; control 0.05% DMSO; day 3 P<0.002, day 5 P<0.0001 (Student's t-test); FIG. 1
Protocol: Method: Thigh muscle tissue was removed from post-natal day 20-30 mouse pups and the tissue reduced to single cells by a method based largely on a protocol by DiMario and Strohman (DiMario, J. and Strohman, R. C.; 1988). Gastrocnemius and soleus muscles were dissected free of surrounding tissue and finely minced with scissors. The minced tissue was mixed with 0.10% crude collagenase and incubated at 37° C. for 30 minutes with occasional trituration through the bore of a 5 ml glass pipette to break up tissue pieces. The collagenase-tissue slurry was centrifuged briefly to pellet the tissue pieces, muscle fibers, and cells. […] The number of cells was determined and aliquots were appropriately diluted with culture medium so that a known number of satellite cells (80,000) could be added to additional 35 mm collagen-coated dishes for analysis of cell proliferation and fusion. […]
Fusion of satellite cells to form muscle fibers is generally accomplished by removing the source of growth factors in the culture medium. […] As fusion of satellite cells to form myofibers began, the number of nuclei contained within mononucleated cells, primarily satellite cells, and those within myofibers were counted differentially at a magnification of 200×. […]

[3] = test system: satellite cells derived from mouse gastrocnemius and soleus muscles; assay: Satellite cell proliferation in secondary satellite cell cultures (cell count per ocular grid); assay type: cell-based; conditions: genistein added to culture medium as in Example 1, on day 1 or day 2; control 0.05% DMSO; P<0.0001 one day after, P<0.00001 at days 2-5 after addition; FIG. 2
Description: Method: To analyze satellite cell proliferation secondary satellite cell cultures derived from mouse gastrocnemius and soleus muscles prepared as in Example 1 were fed fresh medium every day. This generally accepted procedure prolongs proliferation and inhibits differentiation and fusion. Two experimental groups were formed by adding genistein to the culture medium, as in Example 1. […] Living cultures were placed on the stage of a phase-contrast microscope and the number of cells contained within an ocular grid was counted at 100× to 200× total magnification. This cell-counting procedure was performed daily through the sixth day of culture.

SMILES: O=c1c(-c2ccc(O)cc2)coc2cc(O)cc(O)c12 [genistein, 5,7-dihydroxy-3-(4-hydroxyphenyl)-4H-1-benzopyran-4-one]
- ill effects on dietary consumption [1]: without obvious ill effects
- fusion of satellite cells (fusion index vs control cultures) [2]: inhibited the fusion of satellite cells
- division of satellite cells (number of cells per reticle-grid vs control cultures) [3]: eliminated the division of satellite cells
